According to ChEMBL document CHEMBL4715697, “Synthesis and biological activity of benzamide DNA minor groove binders” (2016):

Columns and labels:
Type in all cases: functional
Conditions in all cases: read-out: Activity
NCI-H226 = experiment: Growth inhibition of human NCI-H226 cells assessed as cell growth at 10 uM incubated for 48 hrs by sulforhodamine B assay relative to control
HCT-15 = experiment: Growth inhibition of human HCT-15 cells assessed as cell growth at 10 uM incubated for 48 hrs by sulforhodamine B assay relative to control
HOP-62 = experiment: Growth inhibition of human HOP-62 cells assessed as cell growth at 10 uM incubated for 48 hrs by sulforhodamine B assay relative to control
Malme-3M = experiment: Growth inhibition of human Malme-3M cells assessed as cell growth at 10 uM incubated for 48 hrs by sulforhodamine B assay relative to control
SK-MEL-5 = experiment: Growth inhibition of human SK-MEL-5 cells assessed as cell growth at 10 uM incubated for 48 hrs by sulforhodamine B assay relative to control
CCRF-CEM = experiment: Growth inhibition of human CCRF-CEM cells assessed as cell growth at 10 uM incubated for 48 hrs by sulforhodamine B assay relative to control
UO-31 = experiment: Growth inhibition of human UO-31 cells assessed as cell growth at 10 uM incubated for 48 hrs by sulforhodamine B assay relative to control
NCI-H322M = experiment: Growth inhibition of human NCI-H322M cells assessed as cell growth at 10 uM incubated for 48 hrs by sulforhodamine B assay relative to control
NCI-H460 = experiment: Growth inhibition of human NCI-H460 cells assessed as cell growth at 10 uM incubated for 48 hrs by sulforhodamine B assay relative to control
HCC 2998 = experiment: Growth inhibition of human HCC 2998 cells assessed as cell growth at 10 uM incubated for 48 hrs by sulforhodamine B assay relative to control
BT-549 = experiment: Growth inhibition of human BT-549 cells assessed as cell growth at 10 uM incubated for 48 hrs by sulforhodamine B assay relative to control
NCI-H23 = experiment: Growth inhibition of human NCI-H23 cells assessed as cell growth at 10 uM incubated for 48 hrs by sulforhodamine B assay relative to control
TK-10 = experiment: Growth inhibition of human TK-10 cells assessed as cell growth at 10 uM incubated for 48 hrs by sulforhodamine B assay relative to control
NCI-H522 = experiment: Growth inhibition of human NCI-H522 cells assessed as cell growth at 10 uM incubated for 48 hrs by sulforhodamine B assay relative to control
UACC-62 = experiment: Growth inhibition of human UACC-62 cells assessed as cell growth at 10 uM incubated for 48 hrs by sulforhodamine B assay relative to control
SF-268 = experiment: Growth inhibition of human SF-268 cells assessed as cell growth at 10 uM incubated for 48 hrs by sulforhodamine B assay relative to control
HT-29 = experiment: Growth inhibition of human HT-29 cells assessed as cell growth at 10 uM incubated for 48 hrs by sulforhodamine B assay relative to control
HL-60(TB) = experiment: Growth inhibition of human HL-60(TB) cells assessed as cell growth at 10 uM incubated for 48 hrs by sulforhodamine B assay relative to control
MOLT-4 = experiment: Growth inhibition of human MOLT-4 cells assessed as cell growth at 10 uM incubated for 48 hrs by sulforhodamine B assay relative to control
T47D = experiment: Growth inhibition of human T47D cells assessed as cell growth at 10 uM incubated for 48 hrs by sulforhodamine B assay relative to control
NCI/ADR-RES = experiment: Growth inhibition of human NCI/ADR-RES cells assessed as cell growth at 10 uM incubated for 48 hrs by sulforhodamine B assay relative to control
ACHN = experiment: Growth inhibition of human ACHN cells assessed as cell growth at 10 uM incubated for 48 hrs by sulforhodamine B assay relative to control
MDA-MB-435 = experiment: Growth inhibition of human MDA-MB-435 cells assessed as cell growth at 10 uM incubated for 48 hrs by sulforhodamine B assay relative to control
SK-MEL-2 = experiment: Growth inhibition of human SK-MEL-2 cells assessed as cell growth at 10 uM incubated for 48 hrs by sulforhodamine B assay relative to control
M14 = experiment: Growth inhibition of human M14 cells assessed as cell growth at 10 uM incubated for 48 hrs by sulforhodamine B assay relative to control
K562 = experiment: Growth inhibition of human K562 cells assessed as cell growth at 10 uM incubated for 48 hrs by sulforhodamine B assay relative to control
UACC-257 = experiment: Growth inhibition of human UACC-257 cells assessed as cell growth at 10 uM incubated for 48 hrs by sulforhodamine B assay relative to control
SF-539 = experiment: Growth inhibition of human SF-539 cells assessed as cell growth at 10 uM incubated for 48 hrs by sulforhodamine B assay relative to control
PC-3 = experiment: Growth inhibition of human PC-3 cells assessed as cell growth at 10 uM incubated for 48 hrs by sulforhodamine B assay relative to control
SR = experiment: Growth inhibition of human SR cells assessed as cell growth at 10 uM incubated for 48 hrs by sulforhodamine B assay relative to control
U-251 = experiment: Growth inhibition of human U-251 cells assessed as cell growth at 10 uM incubated for 48 hrs by sulforhodamine B assay relative to control
DU-145 = experiment: Growth inhibition of human DU-145 cells assessed as cell growth at 10 uM incubated for 48 hrs by sulforhodamine B assay relative to control
OVCAR-5 = experiment: Growth inhibition of human OVCAR-5 cells assessed as cell growth at 10 uM incubated for 48 hrs by sulforhodamine B assay relative to control
KM12 = experiment: Growth inhibition of human KM12 cells assessed as cell growth at 10 uM incubated for 48 hrs by sulforhodamine B assay relative to control
786-0 = experiment: Growth inhibition of human 786-0 cells assessed as cell growth at 10 uM incubated for 48 hrs by sulforhodamine B assay relative to control
EKVX = experiment: Growth inhibition of human EKVX cells assessed as cell growth at 10 uM incubated for 48 hrs by sulforhodamine B assay relative to control
SNB-19 = experiment: Growth inhibition of human SNB-19 cells assessed as cell growth at 10 uM incubated for 48 hrs by sulforhodamine B assay relative to control
CAKI-1 = experiment: Growth inhibition of human CAKI-1 cells assessed as cell growth at 10 uM incubated for 48 hrs by sulforhodamine B assay relative to control
RPMI-8226 = experiment: Growth inhibition of human RPMI-8226 cells assessed as cell growth at 10 uM incubated for 48 hrs by sulforhodamine B assay relative to control
SNB-75 = experiment: Growth inhibition of human SNB-75 cells assessed as cell growth at 10 uM incubated for 48 hrs by sulforhodamine B assay relative to control

Compound	growth at 10 µM (NCI-H226)	growth at 10 µM (HCT-15)	growth at 10 µM (HOP-62)	growth at 10 µM (Malme-3M)	growth at 10 µM (SK-MEL-5)	growth at 10 µM (CCRF-CEM)	growth at 10 µM (UO-31)	growth at 10 µM (NCI-H322M)	growth at 10 µM (NCI-H460)	growth at 10 µM (HCC 2998)	growth at 10 µM (BT-549)	growth at 10 µM (NCI-H23)	growth at 10 µM (TK-10)	growth at 10 µM (NCI-H522)	growth at 10 µM (UACC-62)	growth at 10 µM (SF-268)	growth at 10 µM (HT-29)	growth at 10 µM (HL-60(TB))	growth at 10 µM (MOLT-4)	growth at 10 µM (T47D)	other results
CC(=O)Nc1cccc(NC(=O)c2ccc(C(=O)Nc3cc(CCl)cc(NC(C)=O)c3)cc2)c1	101%	109%	112%	99.6%	102%	90.8%	104%	125%	112%	103%	108%	107%	113%	90.8%	98.3%	115%	111%	93.4%	93.3%	95.8%	growth at 10 µM (NCI/ADR-RES): 109%; growth at 10 µM (ACHN): 109%; growth at 10 µM (MDA-MB-435): 108%; growth at 10 µM (SK-MEL-2): 100%; growth at 10 µM (M14): 104%; growth at 10 µM (K562): 104%; growth at 10 µM (UACC-257): 106%; growth at 10 µM (SF-539): 109%; growth at 10 µM (PC-3): 95.2%; growth at 10 µM (SR): 103%; growth at 10 µM (U-251): 113%; growth at 10 µM (DU-145): 119%; growth at 10 µM (OVCAR-5): 112%; growth at 10 µM (KM12): 118%; growth at 10 µM (786-0): 112%; growth at 10 µM (EKVX): 114%; growth at 10 µM (SNB-19): 104%; growth at 10 µM (CAKI-1): 115%; growth at 10 µM (RPMI-8226): 98.8%; growth at 10 µM (SNB-75): 113%
CC(=O)Nc1cc(CO)cc(NC(=O)c2ccc(C(=O)Nc3cccc(NC(=O)CCCN(C)C)c3)cc2)c1	93.6%	105%	77.7%	17.6%	77.7%	41.2%	112%	98.5%	90.3%	97.7%	108%	99.1%	117%	79.5%	64.6%	79.4%	59.4%	91.2%	57.9%	82.4%	growth at 10 µM (NCI/ADR-RES): 107%; growth at 10 µM (ACHN): 92.8%; growth at 10 µM (MDA-MB-435): 70%; growth at 10 µM (SK-MEL-2): 91.8%; growth at 10 µM (M14): 81%; growth at 10 µM (K562): 16.7%; growth at 10 µM (UACC-257): 88%; growth at 10 µM (SF-539): 88%; growth at 10 µM (PC-3): 98.6%; growth at 10 µM (SR): 11%; growth at 10 µM (U-251): 69.9%; growth at 10 µM (DU-145): 105%; growth at 10 µM (OVCAR-5): 109%; growth at 10 µM (KM12): 83.1%; growth at 10 µM (786-0): 104%; growth at 10 µM (EKVX): 95.5%; growth at 10 µM (SNB-19): 114%; growth at 10 µM (CAKI-1): 101%; growth at 10 µM (RPMI-8226): 95.6%; growth at 10 µM (SNB-75): 62.2%
CC(=O)Nc1cccc(NC(=O)c2ccc(C(=O)Nc3cc(CO)cc(NC(C)=O)c3)cc2)c1	97.1%	104%	106%	107%	103%	93%	100%	115%	112%	102%	116%	105%	98.8%	89.1%	101%	103%	109%	96.9%	92.7%	86.2%	growth at 10 µM (NCI/ADR-RES): 113%; growth at 10 µM (ACHN): 106%; growth at 10 µM (MDA-MB-435): 105%; growth at 10 µM (SK-MEL-2): 88.1%; growth at 10 µM (M14): 101%; growth at 10 µM (K562): 104%; growth at 10 µM (UACC-257): 101%; growth at 10 µM (SF-539): 106%; growth at 10 µM (PC-3): 101%; growth at 10 µM (SR): 104%; growth at 10 µM (U-251): 111%; growth at 10 µM (DU-145): 117%; growth at 10 µM (OVCAR-5): 108%; growth at 10 µM (KM12): 111%; growth at 10 µM (786-0): 112%; growth at 10 µM (EKVX): 112%; growth at 10 µM (SNB-19): 112%; growth at 10 µM (CAKI-1): 111%; growth at 10 µM (RPMI-8226): 92%; growth at 10 µM (SNB-75): 94.9%
